How the values were obtained:
[1] = test system: choroidal neovascularization (CNV); assay: Laser-induced choroidal neovascularization (CNV) volume, intravitreous injection; format: in vivo, C57BL/6J mice; details: wild-type mice, injected into the vitreous humor immediately after laser injury; compared to vehicle control (DMSO)
Procedure: Laser photocoagulation (532 nm, 200 mW, 100 ms, 75 μm) (OcuLight GL, Iridex Corporation) was performed (volume studies: 3/eye; protein analyses/flow cytometry: 12/eye) on both eyes of each animal to induce CNV (choroidal neovascularization). CNV volumes were measured by scanning laser confocal microscope (TCS SP, Leica) with 0.5% FITC-Griffonia simplicifolia Isolectin B4 (Vector Laboratories). CNV was induced by laser injury in C57BL/6J and Ccr3^−/− mice and volumes measured 7 days later by confocal evaluation of Griffonia simplicifolia Isolectin B4 staining of RPE-choroid flatmounts. […]
Because the probability of each laser lesion developing CNV is influenced by the group to which it belongs, the mouse, the eye, and the laser spot, the mean lesion volumes were compared using a linear mixed model with a split plot repeated measures design. […] Statistical significance was determined at the 0.05 level. […]
Laser photocoagulation (532 nm, 200 mW, 100 ms, 75 μm) (OcuLight GL, Iridex Corporation) was performed (volume studies: 3/eye; protein analyses/flow cytometry: 12/eye) on both eyes of each animal to induce CNV. CNV volumes were measured by scanning laser confocal microscope (TCS SP, Leica) with 0.5% FITC-Griffonia simplicifolia Isolectin B4 (Vector Laboratories) or 0.5% FITC-rat antibody against mouse CD31 (BD Biosciences). […]

[2] = test system: primary hCEC; assay: F-actin polymerization assay; format: cell-based, human; details: eotaxin-1 10 ng/mL, eotaxin-2 100 ng/mL, eotaxin-3 2 μg/mL
Procedure: A F-actin polymerization assay was performed. 10,000 cells from early passage primary hCEC isolates (n=3) were seeded in black-walled 96-well plates and grown to 70-80% confluency in fully supplemented EGM-2MV. Cultures were serum starved overnight in basal media and then stimulated with recombinant human eotaxin-1 (10 ng/mL), eotaxin-2 (100 ng/mL), eotaxin-3 (2 μg/mL) (Peprotech), or vehicle control (PBS). At 0, 10, 30, 60, or 120 second time-points (n=4 per group), cells were fixed in 3.7% paraformaldehyde for 10 minutes, washed, permeabilized in PBS with 0.1% Triton-X, and then stained with rhodamine labeled Phalloidin (1:200, Invitrogen) per manufacturer's recommendations. Plates were analyzed on a fluorescent plate reader (Synergy 4, Biotek) followed by fluorescent microscopy (Nikon E800).
F-actin polymer ratios between baseline and treated cultures were calculated using a fluorescent based plate assay.

[3] = test system: Rac-1 GTPase in Human CECs (hCECs); assay: Rac-1 activation assay (GST-Pak1-PBD pull-down, western blot); format: cell-based; details: hCEC, eotaxin-1 10 ng/ml, at 10 seconds, normalized against control band density
Procedure: A Rac-1 activation assay was performed. Human CECs were cultured in EGM-2 MV containing 5% FBS. Prior to starting the assay, cells were serum starved with basal medium (MCDB131) supplemented with 1% FB S overnight. Cells were stimulated for designated times with Eotaxin-1, 2 and 3 (10 ng/ml, 100 ng/ml and 2 μg/ml respectively). Equal amounts of lysates (500 μg) were incubated with GST-Pak1-PBD agarose beads (Upstate) to pull-down active GTP-bound Rac-1 at 4° C. for 1 hour with rotation. The samples were subsequently analyzed for bound Rac-1 by western blot analysis using an anti-Rac-1 antibody (Upstate). Band density was measured using VisionWorksLS software (UVP).
hCECs) were stimulated with Eotaxin-1, 2 and 3 for indicated times. Cells without Eotaxin stimulation were used as a control (0 sec). Equal amount (500 μg) of total cell lysates was used to determine the GTP-bound Rac-1 (active) by pull-down assays. Levels of increase of active Rac-1 were measured after normalizing against the control band density.

Molecule | CNV volume [1] | time of peak F-actin polymerization after stimulation [2] | increase of Rac-1 activation [3]
(S)-Methyl-2-naphthoylamino-3-(4-nitrophenyl)propionate [SB328437] | reduces CNV volume in a dose-dependent and statistically significant manner | – | –
Eotaxin-1: recombinant human eotaxin-1 (Peprotech), CCR3 ligand | – | 10 s | about 6.5 fold
Eotaxin-3: recombinant human eotaxin-3 (Peprotech), CCR3 ligand (protein, UniProt Q9Y258 24-94, looked up) C-C motif chemokine 26: TRGSDISKTCCFQYSHKPLPWTWVRSYEFTSNSCSQRAVIFTTKRGKKVCTHPRKKWVQKYISLLKTPKQL | – | 10 s | –
Eotaxin-2: recombinant human eotaxin-2 (Peprotech), CCR3 ligand (protein, UniProt O00175 27-119, looked up) C-C motif chemokine 24: VVIPSPCCMFFVSKRIPENRVVSYQLSSRSTCLKAGVIFTTKKGQQFCGDPKQEWVQRYMKNLDAKQKKASPRARAVAVKGPVQRYPGNQTTC | – | 10 s | –
